{"source": "paper PMC5218480", "about": "(PLoS ONE, 2017)", "tested_on": "MV-4-11 cells", "test": "Gene expression microarray analysis (Affymetrix PrimeView) and GSEA", "format": "cell-based, human", "parameters": "RFU PODN (11730768_x_at) / Fold change /veh PODN (11730768_x_at) / RFU LINC00158 (11744669_a_at) / Fold change /veh LINC00158 (11744669_a_at) / RFU DUSP10 (11751237_a_at) / Fold change /veh DUSP10 (11751237_a_at) / RFU ID3 (11757404_x_at) / Fold change /veh ID3 (11757404_x_at) / RFU PLEKHG5 (11737974_s_at) / Fold change /veh PLEKHG5 (11737974_s_at) / RFU LRRC4B (11730491_at) / Fold change /veh LRRC4B (11730491_at) / RFU GIMAP4 (11747438_a_at) / Fold change /veh GIMAP4 (11747438_a_at) / RFU KRT8 (11758183_x_at) / Fold change /veh KRT8 (11758183_x_at) / RFU CNN1 (11734310_a_at) / Fold change /veh CNN1 (11734310_a_at) / RFU VPS37D (11726825_at) / Fold change /veh VPS37D (11726825_at) / RFU C10orf10 (11716522_x_at) / Fold change /veh C10orf10 (11716522_x_at) / RFU KIR2DL2 /// KIR2DL4 /// KIR2DL5A /// KIR2DL5B /// KIR2DS1 /// KIR2DS2 /// KIR2DS3 /// KIR2DS4 /// KIR3DL3 /// KIR3DL3 /// KIR3DS1 (11738374_at) / Fold change /veh KIR2DL2 /// KIR2DL4 /// KIR2DL5A /// KIR2DL5B /// KIR2DS1 /// KIR2DS2 /// KIR2DS3 /// KIR2DS4 /// KIR3DL3 /// KIR3DL3 /// KIR3DS1 (11738374_at) / RFU C1QL1 (11718748_at) / Fold change /veh C1QL1 (11718748_at) / RFU TMPRSS4 (11747572_a_at) / Fold change /veh TMPRSS4 (11747572_a_at) / RFU HAMP (11756126_x_at) / Fold change /veh HAMP (11756126_x_at) / RFU RNFT2 (11725882_a_at) / Fold change /veh RNFT2 (11725882_a_at) / RFU NR4A2 (11747474_a_at) / Fold change /veh NR4A2 (11747474_a_at) / RFU ABCC12 (11746883_a_at) / Fold change /veh ABCC12 (11746883_a_at) / RFU TMEM136 (11760407_x_at) / Fold change /veh TMEM136 (11760407_x_at) / RFU CLDN22 /// WWC2 (11732394_at) / Fold change /veh CLDN22 /// WWC2 (11732394_at) / RFU HLA-DPB1 (11760878_x_at) / Fold change /veh HLA-DPB1 (11760878_x_at) / RFU SPINT1 (11716480_a_at) / Fold change /veh SPINT1 (11716480_a_at) / RFU GAP43 (11754022_s_at) / Fold change /veh GAP43 (11754022_s_at) / RFU A4GNT (11735810_at) / Fold change /veh A4GNT (11735810_at) / RFU PRB3 (11715151_x_at) / Fold change /veh PRB3 (11715151_x_at) / RFU TUBB4B (11761932_at) / Fold change /veh TUBB4B (11761932_at) / RFU CAPN14 (11732068_a_at) / Fold change /veh CAPN14 (11732068_a_at) / RFU TMCC2 (11721928_a_at) / Fold change /veh TMCC2 (11721928_a_at) / RFU IRGQ (11745062_a_at) / Fold change /veh IRGQ (11745062_a_at) / RFU FAM174B (11720279_a_at) / Fold change /veh FAM174B (11720279_a_at) / RFU TMPRSS4 (11748680_a_at) / Fold change /veh TMPRSS4 (11748680_a_at) / RFU FAM212B (11763350_a_at) / Fold change /veh FAM212B (11763350_a_at) / RFU PLEKHG5 (11743358_a_at) / Fold change /veh PLEKHG5 (11743358_a_at) / RFU ZSCAN30 (11745921_a_at) / Fold change /veh ZSCAN30 (11745921_a_at) / RFU CMKLR1 (11741424_a_at) / Fold change /veh CMKLR1 (11741424_a_at) / RFU LOC101060620 /// MAPK8IP1 (11723275_at) / Fold change /veh LOC101060620 /// MAPK8IP1 (11723275_at) / RFU SPTSSB (11747773_x_at) / Fold change /veh SPTSSB (11747773_x_at) / RFU PRSS12 (11739890_at) / Fold change /veh PRSS12 (11739890_at) / RFU BIN1 (11741810_x_at) / Fold change /veh BIN1 (11741810_x_at) / RFU WNT11 (11732464_a_at) / Fold change /veh WNT11 (11732464_a_at) / RFU C10orf10 (11716521_a_at) / Fold change /veh C10orf10 (11716521_a_at) / RFU C5orf56 (11738089_at) / Fold change /veh C5orf56 (11738089_at) / RFU CYB561 (11721691_x_at) / Fold change /veh CYB561 (11721691_x_at) / RFU ANKRD19P (11752326_a_at) / Fold change /veh ANKRD19P (11752326_a_at) / RFU OR2T12 /// OR2T33 /// OR2T8 (11738714_s_at) / Fold change /veh OR2T12 /// OR2T33 /// OR2T8 (11738714_s_at) / RFU VCAN (11748164_a_at) / Fold change /veh VCAN (11748164_a_at) / RFU JSRP1 (11732532_at) / Fold change /veh JSRP1 (11732532_at) / RFU KRTAP10-11 (11738290_x_at) / Fold change /veh KRTAP10-11 (11738290_x_at) / RFU MYO3A (11730013_a_at) / Fold change /veh MYO3A (11730013_a_at) / RFU EBF3 (11725865_a_at) / Fold change /veh EBF3 (11725865_a_at) / RFU CAMK2N1 (11719241_x_at) / Fold change /veh CAMK2N1 (11719241_x_at) / RFU C5orf56 (11738088_a_at) / Fold change /veh C5orf56 (11738088_a_at) / RFU OLFML3 (11715873_a_at) / Fold change /veh OLFML3 (11715873_a_at) / RFU LOC100653217 /// NTM (11731650_a_at) / Fold change /veh LOC100653217 /// NTM (11731650_a_at) / RFU MAPK11 (11762145_a_at) / Fold change /veh MAPK11 (11762145_a_at) / RFU FIZ1 (11724087_x_at) / Fold change /veh FIZ1 (11724087_x_at) / RFU OASL (11726364_x_at) / Fold change /veh OASL (11726364_x_at) / RFU SOX15 (11748057_x_at) / Fold change /veh SOX15 (11748057_x_at) / RFU CD79A (11719716_a_at) / Fold change /veh CD79A (11719716_a_at) / RFU HIST1H1D (11736915_at) / Fold change /veh HIST1H1D (11736915_at) / RFU CASKIN2 (11723855_a_at) / Fold change /veh CASKIN2 (11723855_a_at) / RFU LOC730098 (11760151_x_at) / Fold change /veh LOC730098 (11760151_x_at) / RFU OR4N2 (11742367_at) / Fold change /veh OR4N2 (11742367_at) / RFU PRRT2 (11749266_a_at) / Fold change /veh PRRT2 (11749266_a_at) / RFU SNX32 (11753110_a_at) / Fold change /veh SNX32 (11753110_a_at) / RFU CDHR5 (11726645_a_at) / Fold change /veh CDHR5 (11726645_a_at) / RFU RCAN1 (11760418_a_at) / Fold change /veh RCAN1 (11760418_a_at) / RFU FAM167A (11723789_a_at) / Fold change /veh FAM167A (11723789_a_at) / RFU FAM26E (11764081_at) / Fold change /veh FAM26E (11764081_at) / RFU ISYNA1 (11749810_s_at) / Fold change /veh ISYNA1 (11749810_s_at) / RFU ACY1 (11761880_at) / Fold change /veh ACY1 (11761880_at) / RFU 11764098_at / Fold change /veh 11764098_at / RFU SAMD14 (11745864_x_at) / Fold change /veh SAMD14 (11745864_x_at) / RFU NPB (11741838_a_at) / Fold change /veh NPB (11741838_a_at) / RFU TMPRSS6 (11731388_a_at) / Fold change /veh TMPRSS6 (11731388_a_at) / RFU KRTAP10-2 (11738614_at) / Fold change /veh KRTAP10-2 (11738614_at) / RFU ARHGAP8 /// PRR5-ARHGAP8 (11727945_x_at) / Fold change /veh ARHGAP8 /// PRR5-ARHGAP8 (11727945_x_at) / RFU KRTAP5-7 /// NADSYN1 (11734609_at) / Fold change /veh KRTAP5-7 /// NADSYN1 (11734609_at) / RFU RASL12 (11751679_a_at) / Fold change /veh RASL12 (11751679_a_at) / RFU CDKN2B (11736163_a_at) / Fold change /veh CDKN2B (11736163_a_at) / RFU PRF1 (11729649_at) / Fold change /veh PRF1 (11729649_at) / RFU, ZNF638 /// ZNF638-IT1 / Fold change vs veh, ZNF638 /// ZNF638-IT1 / RFU, PANK3 / Fold change vs veh, PANK3 / RFU, SH3YL1 / Fold change vs veh, SH3YL1 / RFU, ZEB2 / Fold change vs veh, ZEB2 / RFU, NRIP1 / Fold change vs veh, NRIP1 / RFU, PTTG1IP / Fold change vs veh, PTTG1IP / RFU, CAPN2 / Fold change vs veh, CAPN2 / RFU, MED14 / Fold change vs veh, MED14 / RFU, SNORA58 / Fold change vs veh, SNORA58 / RFU, C1orf63 / Fold change vs veh, C1orf63 / RFU, LRRFIP1 / Fold change vs veh, LRRFIP1 / RFU, NDUFAF7 / Fold change vs veh, NDUFAF7 / RFU, SLC12A2 / Fold change vs veh, SLC12A2 / RFU, IBTK / Fold change vs veh, IBTK / RFU, ESF1 / Fold change vs veh, ESF1 / Fold change vs veh, TMEM50B / RFU, TAOK1 / Fold change vs veh, TAOK1 / RFU, ACBD3 / Fold change vs veh, ACBD3 / RFU, TMA16 / Fold change vs veh, TMA16 / RFU, RWDD3 / Fold change vs veh, RWDD3 / RFU, BCAT1 / Fold change vs veh, BCAT1 / RFU, EDEM3 / Fold change vs veh, EDEM3 / RFU, TMEM33 / Fold change vs veh, TMEM33 / RFU, WDR75 / Fold change vs veh, WDR75 / RFU, AHCTF1 / Fold change vs veh, AHCTF1 / RFU, TFRC / Fold change vs veh, TFRC / RFU, ZDHHC17 / Fold change vs veh, ZDHHC17 / RFU, NOM1 / Fold change vs veh, NOM1 / RFU, ARL8B / Fold change vs veh, ARL8B / RFU, ZBTB11 / Fold change vs veh, ZBTB11 / RFU, TAMM41 / Fold change vs veh, TAMM41 / RFU, KIAA1704 /// LOC100996395 / Fold change vs veh, KIAA1704 /// LOC100996395 / RFU, ING1 / Fold change vs veh, ING1 / RFU, TRMT61B / Fold change vs veh, TRMT61B / RFU, FUBP3 / Fold change vs veh, FUBP3 / RFU, TP53 / Fold change vs veh, TP53 / RFU, TNKS2 / Fold change vs veh, TNKS2 / RFU, ZFP14 / Fold change vs veh, ZFP14 / RFU, ACTR2 / Fold change vs veh, ACTR2 / RFU, PPP3R1 / Fold change vs veh, PPP3R1 / RFU, PIK3R1 / Fold change vs veh, PIK3R1 / RFU, HNRNPA1 / Fold change vs veh, HNRNPA1 / RFU, RNF170 / Fold change vs veh, RNF170 / RFU, ZNF28 / Fold change vs veh, ZNF28 / RFU, RNGTT / Fold change vs veh, RNGTT / RFU, OGT / Fold change vs veh, OGT / RFU, BRD1 / Fold change vs veh, BRD1 / RFU, MARS / Fold change vs veh, MARS / RFU, ZNF655 / Fold change vs veh, ZNF655 / RFU, FAHD1 / Fold change vs veh, FAHD1 / RFU, BDP1 / Fold change vs veh, BDP1 / RFU, LRRCC1 / Fold change vs veh, LRRCC1 / RFU, ARID1A / Fold change vs veh, ARID1A / RFU, ZNF146 / Fold change vs veh, ZNF146 / RFU, ZNF330 / Fold change vs veh, ZNF330 / RFU, GPN3 / Fold change vs veh, GPN3 / RFU, C9orf123 / Fold change vs veh, C9orf123 / RFU, N4BP2L2 / Fold change vs veh, N4BP2L2 / RFU, ARFIP1 / Fold change vs veh, ARFIP1 / RFU, FAM179B / Fold change vs veh, FAM179B / RFU, BCL10 / Fold change vs veh, BCL10 / RFU, UHRF1BP1L / Fold change vs veh, UHRF1BP1L / RFU, BET1 / Fold change vs veh, BET1 / RFU, CNOT2 / Fold change vs veh, CNOT2 / RFU, ZNF268 / Fold change vs veh, ZNF268 / Fold change vs veh, ZNF507 / RFU, DGCR2 / Fold change vs veh, DGCR2 / RFU, WDSUB1 / Fold change vs veh, WDSUB1 / Fold change vs veh, HSP90B1 /// MIR3652 / RFU, ADSS / Fold change vs veh, ADSS / RFU, GK / Fold change vs veh, GK / RFU, ZNF148 / Fold change vs veh, ZNF148 / RFU, TAF9 / Fold change vs veh, TAF9 / RFU, SLC1A5 / Fold change vs veh, SLC1A5 / RFU, SLMO2 / Fold change vs veh, SLMO2 / RFU, ABCC4 / Fold change vs veh, ABCC4 / RFU, LOC101060439 /// RAP1B / Fold change vs veh, LOC101060439 /// RAP1B / RFU, RFX7 / Fold change vs veh, RFX7 / RFU, GTPBP10 / Fold change vs veh, GTPBP10 / RFU, CNEP1R1 / Fold change vs veh, CNEP1R1 / RFU, BIVM-ERCC5 /// ERCC5 / Fold change vs veh, BIVM-ERCC5 /// ERCC5 / RFU, ILF3 / Fold change vs veh, ILF3 / RFU 11762660_at / Fold change /veh 11762660_at / RFU VCAN (11757783_s_at) / Fold change /veh VCAN (11757783_s_at) / RFU DDX43 (11728927_at) / Fold change /veh DDX43 (11728927_at) / RFU KRT8 (11758188_x_at) / Fold change /veh KRT8 (11758188_x_at) / RFU NKD1 (11759106_at) / Fold change /veh NKD1 (11759106_at) / RFU SRD5A1 (11742802_a_at) / Fold change /veh SRD5A1 (11742802_a_at) / RFU TPSAB1 /// TPSB2 (11721975_s_at) / Fold change /veh TPSAB1 /// TPSB2 (11721975_s_at) / RFU GSTM3 (11746129_a_at) / Fold change /veh GSTM3 (11746129_a_at) / RFU IL23R (11737362_x_at) / Fold change /veh IL23R (11737362_x_at) / RFU TMEM51 (11727254_a_at) / Fold change /veh TMEM51 (11727254_a_at) / RFU PIWIL2 (11732686_x_at) / Fold change /veh PIWIL2 (11732686_x_at) / RFU ORM1 (11744905_x_at) / Fold change /veh ORM1 (11744905_x_at) / RFU CCDC152 (11743942_at) / Fold change /veh CCDC152 (11743942_at) / RFU ECM1 (11717891_a_at) / Fold change /veh ECM1 (11717891_a_at) / RFU IL23R (11748794_a_at) / Fold change /veh IL23R (11748794_a_at) / RFU TNFAIP8L3 (11732012_x_at) / Fold change /veh TNFAIP8L3 (11732012_x_at) / RFU MBOAT4 (11741988_at) / Fold change /veh MBOAT4 (11741988_at) / RFU 11764193_at / Fold change /veh 11764193_at / RFU TMEM53 (11763286_at) / Fold change /veh TMEM53 (11763286_at) / RFU MAGEB2 (11727129_at) / Fold change /veh MAGEB2 (11727129_at) / RFU TMEM200A (11744735_a_at) / Fold change /veh TMEM200A (11744735_a_at) / RFU CCDC152 (11751479_a_at) / Fold change /veh CCDC152 (11751479_a_at) / RFU FAM211A (11726209_a_at) / Fold change /veh FAM211A (11726209_a_at) / RFU RGS16 (11746705_a_at) / Fold change /veh RGS16 (11746705_a_at) / RFU VCAN (11755009_s_at) / Fold change /veh VCAN (11755009_s_at) / RFU RHOB (11743442_s_at) / Fold change /veh RHOB (11743442_s_at) / RFU RGS16 (11720943_a_at) / Fold change /veh RGS16 (11720943_a_at) / RFU RGS16 (11720944_at) / Fold change /veh RGS16 (11720944_at) / RFU, VPS4B / Fold change vs veh, VPS4B / RFU, CREB1 / Fold change vs veh, CREB1 / RFU, DNAJC13 / Fold change vs veh, DNAJC13 / RFU, GNAQ / Fold change vs veh, GNAQ / RFU, CDK5R1 / Fold change vs veh, CDK5R1 / RFU, ZRANB3 / Fold change vs veh, ZRANB3 / RFU, CUL4A / Fold change vs veh, CUL4A / RFU, CCNY / Fold change vs veh, CCNY / RFU, UFL1 / Fold change vs veh, UFL1 / RFU, COG3 / Fold change vs veh, COG3 / RFU, DIAPH2 / Fold change vs veh, DIAPH2 / RFU, SKA2 / Fold change vs veh, SKA2 / RFU, AFF3 / Fold change vs veh, AFF3 / RFU, LMF1 / Fold change vs veh, LMF1 / RFU, IPO11 / Fold change vs veh, IPO11 / RFU, DFFB / Fold change vs veh, DFFB / RFU, FOXP1 / Fold change vs veh, FOXP1 / RFU, CARD8 / Fold change vs veh, CARD8 / RFU, STRN3 / Fold change vs veh, STRN3 / RFU, ADK / Fold change vs veh, ADK / RFU, RASSF2 / Fold change vs veh, RASSF2 / RFU, WIPF1 / Fold change vs veh, WIPF1 / RFU, LARP1B / Fold change vs veh, LARP1B / RFU, RASA1 / Fold change vs veh, RASA1 / RFU, RB1 / Fold change vs veh, RB1 / RFU, PPFIA1 / Fold change vs veh, PPFIA1 / RFU, MAT2A / Fold change vs veh, MAT2A / RFU, CCT5 / Fold change vs veh, CCT5 / RFU, WDR92 / Fold change vs veh, WDR92 / RFU, CUX1 / Fold change vs veh, CUX1 / RFU, TTC7A / Fold change vs veh, TTC7A / RFU, TMEM135 / Fold change vs veh, TMEM135 / RFU, DEPTOR / Fold change vs veh, DEPTOR / RFU, CPM / Fold change vs veh, CPM / RFU, DNAJB6 / Fold change vs veh, DNAJB6 / RFU, CACNA2D3 / Fold change vs veh, CACNA2D3 / RFU, DTX4 / Fold change vs veh, DTX4 / RFU, TFCP2 / Fold change vs veh, TFCP2 / RFU, GMCL1 /// GMCL1P1 / Fold change vs veh, GMCL1 /// GMCL1P1 / RFU, AEBP2 / Fold change vs veh, AEBP2 / RFU, SNHG1 /// SNORD22 /// SNORD25 /// SNORD26 /// SNORD27 /// SNORD28 /// SNORD29 /// SNORD31 / Fold change vs veh, SNHG1 /// SNORD22 /// SNORD25 /// SNORD26 /// SNORD27 /// SNORD28 /// SNORD29 /// SNORD31 / Fold change (Aza/veh), C12orf56 (ProbeSet 11735607_a_at) / Fold change (ACY-1035/veh), C12orf56 (ProbeSet 11735607_a_at) / Fold change (Aza/veh), FGFR1OP (ProbeSet 11751329_s_at) / Fold change (ACY-1035/veh), FGFR1OP (ProbeSet 11751329_s_at) / Fold change (Aza/veh), VPS36 (ProbeSet 11739960_a_at) / Fold change (ACY-1035/veh), VPS36 (ProbeSet 11739960_a_at) / RFU SYPL1 (11715823_x_at) / Fold change /veh SYPL1 (11715823_x_at) / RFU IGFBP7 (11715501_s_at) / Fold change /veh IGFBP7 (11715501_s_at) / RFU REEP3 (11722064_at) / Fold change /veh REEP3 (11722064_at) / RFU IGLL1 (11728026_x_at) / Fold change /veh IGLL1 (11728026_x_at): dose or concentration left out as unconfirmed", "details": "MV-4-11 cells, 48 hours"}
{"smiles": "Nc1ccc(-c2cccs2)cc1NC(=O)c1ccc2c(c1)cc(C1CC1)n2CCN1CCOCC1", "note": "[ACY-1035]", "values": [{"measurement": "RFU FIZ1 (11724087_x_at)", "result": 31.13, "unit": "RFU"}]}
